Test [1] deals with Alternaria solani (F129L). In words: Micro titer plate test against Alternaria solani causing early blight (ALTESO F129L). In kind it is cell-based. As to conditions: Alternaria solani, 168 h; 0.016 ppm; read-out: Fungal growth (%) ALTESO F129L.
Test [2] concerns Phakopsora pachyrhizi (F129L). In words: Protective control of soybean rust on soybeans (PHAKPA P2). Format: in vivo. As to conditions: for % PHAKPA (F129L) Disease level P2 at 4 ppm: protective P2, 4 ppm; for % PHAKPA (F129L) Disease level P2 at 4 ppm / % PHAKPA (F129L) Disease level P2 at 16 ppm: soybean rust F129L; for % PHAKPA (F129L) Disease level P2 at 16 ppm: protective P2, 16 ppm.

The test system of the next test is Septoria tritici. Put plainly: microbe, parasite or virus in culture. In kind it is cell-based. As to conditions: Zymoseptoria tritici, 168 h, read-out: Fungal growth (%) SEPTTR.
Test [3] deals with Pyrenophora teres (F129L). Put plainly: Micro titer plate test against Pyrenophora teres causing net blotch on barley (PYRNTE F129L). Format: cell-based. As to conditions: 0.25 ppm.
Test [4] relates to Colletotrichum orbiculare. Put plainly: Micro titer plate test against Colletotrichum orbiculare causing anthracnose (COLLLA). Format: cell-based. As to conditions: Colletotrichum orbiculare, 168 h, read-out: Fungal growth (%) COLLLA.
In another test the test system is Pyrenophora teres (wt). In words: Micro titer plate test against Pyrenophora teres causing net blotch on barley (PYRNTE wt). In kind it is cell-based. As to conditions: 168 h, 0.25 ppm, read-out: Fungal growth (%) PYRNTE wt.
The subject of the next test is Microdochium nivale. Put plainly: Micro titer plate test against Microdochium nivale causing snow mould (MONGNI). As to conditions: Microdochium nivale, 168 h; 0.016 ppm; read-out: Fungal growth (%) MONGNI. Format: cell-based.
The subject of test [5] is Phakopsora pachyrhizi (F129L). In words: Protective control of soybean rust on soybeans (PHAKPA P6). Format: in vivo. As to conditions: for % PHAKPA (F129L) Disease level P6 at 4 ppm: protective P6, 4 ppm; for % PHAKPA (F129L) Disease level P6 at 4 ppm / % PHAKPA (F129L) Disease level P6 at 16 ppm: soybean rust F129L; for % PHAKPA (F129L) Disease level P6 at 16 ppm: protective P6, 16 ppm.

A further test has as its system Cercospora sojina. Put plainly: microbe, parasite or virus in culture. In kind it is cell-based. As to conditions: Cercospora sojina, 168 h; 4 ppm; read-out: Fungal growth (%) CERCSO.
The next test deals with Pyricularia oryzae. Put plainly: microbe, parasite or virus in culture. Format: cell-based. As to conditions: Pyricularia oryzae, 168 h, read-out: Fungal growth (%) PYRIOR.
The next test has as its system Leptosphaeria nodorum. In words: Micro titer plate test against Leptosphaeria nodorum causing wheat leaf spots (LEPTNO). Format: cell-based. As to conditions: Parastagonospora nodorum, 168 h; 0.063 ppm; read-out: Fungal growth (%) LEPTNO.
In a further test the test system is Alternaria solani (wt). In words: microbe, parasite or virus in culture. In kind it is cell-based. As to conditions: Alternaria solani, 168 h, read-out: Fungal growth (%) ALTESO wt.
For test [6], the system named is Phakopsora pachyrhizi (wt). In kind it is in vivo. As to conditions: Qo I-sensitive wt isolate (0% F129L).

Like-named read-outs stand apart in the source and are kept apart here.

`CO/N=C(/C(=O)OC)c1cccc(C)c1CO/N=C(\C)c1cccc(C)c1` [Ex. 76]: the activity at 0.016 ppm in test [1] was found to be 37%; with Microdochium nivale, 35%; in the test with Pyricularia oryzae, 43%; with Alternaria solani (wt) (0.016 ppm), 55%. In addition, the “PHAKPA (F129L) Disease level (%) P2 at 4 ppm” value in [2] (P2 protective, 4 ppm, % diseased leaf area) was 35%. Further, the “PHAKPA (F129L) Disease level (%) P2 at 16 ppm” value in test [2] (P2 protective, 16 ppm, % diseased leaf area) was found to be 1%. Further, the “% PHAKPA (F129L) Disease level P2 at 4 ppm” value in test [2] is recorded as 30%. Further, the “% PHAKPA (F129L) Disease level P2 at 16 ppm” value in [2] came to 3%. The activity at 0.25 ppm in the test on Septoria tritici turned out to be 0%; in the test on Pyrenophora teres (wt), 39%. The “Fungal growth (%) PYRNTE F129L” value in test [3] is listed as 66%. Besides, the activity at 0.063 ppm (in test [4]; in the test on Leptosphaeria nodorum) was 39% each time. Moreover, in test [5], the “% PHAKPA (F129L) Disease level P6 at 4 ppm” value is reported as 9%. In addition, in test [5], the “% PHAKPA (F129L) Disease level P6 at 16 ppm” value turned out to be 0%. Further, in the test on Cercospora sojina, the activity at 4 ppm came to 28%.
Turning to `CO/N=C(/C(=O)OC)c1cccc(C)c1CO/N=C(\C)c1cccc(OC(F)(F)F)c1` [drawing 940], the “Fungal growth (%) PYRNTE F129L” value in test [3] is recorded as 84%. In the test on Pyrenophora teres (wt), the activity at 0.25 ppm was found to be 87%. Further, the activity at 0.016 ppm in the test on Microdochium nivale was determined as 86%. Besides, in the test with Leptosphaeria nodorum, the activity at 0.063 ppm is 79%.
With `CNC(=O)/C(=N/OC)c1cccc(C)c1CO/N=C(\C)c1cccc(Cl)c1` [Ex. 157], the activity at 0.016 ppm in test [1] was 57%; in the test on Microdochium nivale, 56%; in the test with Pyricularia oryzae, 15%. The “% PHAKPA (F129L) Disease level P2 at 4 ppm” value in test [2] is 1%. Also, the “% PHAKPA (F129L) Disease level P2 at 16 ppm” value in test [2] amounted to 0%. For the same compound, the activity at 0.25 ppm in the test on Septoria tritici stood at 20%; in the test on Pyrenophora teres (wt) it was 54%; in the test on Alternaria solani (wt) (0.25 ppm) it was 27%. In [3], the “Fungal growth (%) PYRNTE F129L” value is given as 58%. The activity at 0.063 ppm in test [4] was found to be 63%. Moreover, the “PHAKPA (F129L) Disease level (%) P6 at 4 ppm” value in test [5] (P6 protective, 4 ppm, % diseased leaf area) was 2%. Moreover, in test [5] (P6 protective, 16 ppm, % diseased leaf area), the “PHAKPA (F129L) Disease level (%) P6 at 16 ppm” value is recorded as 1%. Moreover, in test [5], the “% PHAKPA (F129L) Disease level P6 at 4 ppm” value amounted to 1%. The “% PHAKPA (F129L) Disease level P6 at 16 ppm” value in [5] is given as 0%. In addition, the activity at 4 ppm with Cercospora sojina turned out to be 36%.
For the compound `CNC(=O)/C(=N/OC)c1cccc(C)c1CO/N=C(\SC)c1cccc(Cl)c1` [drawing 968], in [3], the “Fungal growth (%) PYRNTE F129L” value amounted to 80%. The activity at 0.25 ppm in the test on Pyrenophora teres (wt) is 76%. The activity at 0.016 ppm with Microdochium nivale was 100%. The activity at 4 ppm in the test on Cercospora sojina was 78%.
Consider `Cc1cccc(-n2nnn(C)c2=O)c1COc1ccn(-c2ccc(Cl)cc2)n1` [drawing 930], for which the “PHAKPA P1 DL Disease level (%)” value in [6] (0.3 ppm) is 78%; in test [6] (1 ppm) it was 80%; in [6] (3 ppm), 77%; in [6] (10 ppm) it was 48%; in test [6] (30 ppm), 30%; in test [6] (100 ppm) it was 18%. Moreover, the “PHAKPA P1 DL Disease level (%)” value in test [6] (300 ppm) worked out at 5%.
For the compound `CO/N=C(/C(=O)OC)c1cccc(C)c1CO/N=C(/c1cccc(C)c1)C1CC1` [drawing 951], the activity at 0.25 ppm in the test with Septoria tritici is 89%. Moreover, the “Fungal growth (%) PYRNTE F129L” value in test [3] was 87%. Moreover, the activity at 0.063 ppm in test [4] is 93%. Further, the activity at 0.016 ppm was found to be 84% with Microdochium nivale and 82% in the test on Pyricularia oryzae.

The values above are taken from patent publication US20230172204A1 (BASF SE, priority 2020, published 2023).
